Data from ChEMBL document CHEMBL3885881, “DrugMatrix”.

Organism: Rattus norvegicus
Assay: DrugMatrix - Regimen: Daily Repeat
Format: toxicity, organism-based, Sprague-Dawley
Parameters: regimen Daily Repeat, gender Male, age 6-8 weeks
Details: in vivo, po, route oral GAVAGE, vehicle .5 % CMC; for ABSOLUTE BASOPHIL / ABSOLUTE EOSINOPHIL / ABSOLUTE LYMPHOCYTE / ABSOLUTE MONOCYTE / ABSOLUTE SEGMENTED NEUTROPHIL / BASOPHIL / EOSINOPHIL / ERYTHROCYTE COUNT / HEMATOCRIT / HEMOGLOBIN / LEUKOCYTE COUNT / LYMPHOCYTE / MEAN CORPUSCULAR HEMOGLOBIN / MEAN CORPUSCULAR HEMOGLOBIN CONCENTRATION / MEAN CORPUSCULAR VOLUME / MONOCYTE / NEUTROPHIL / NUCLEATED RED BLOOD CELLS / PLATELET COUNT: tissue Blood; for ALANINE AMINOTRANSFERASE / ALBUMIN / ALKALINE PHOSPHATASE / ASPARTATE AMINOTRANSFERASE / BLOOD UREA NITROGEN / CARBON DIOXIDE / CHLORIDE / CHOLESTEROL / CREATINE PHOSPHOKINASE / CREATININE / GLUCOSE / LACTATE DEHYDROGENASE / LIPASE / PHOSPHORUS / POTASSIUM / SODIUM / TOTAL BILIRUBIN / TOTAL PROTEIN / URIC ACID: tissue Plasma
[1] = 50 mg/kg, 72 h, dose level Low, time 3 day
[2] = 50 mg/kg, 120 h, dose level Low, time 5 day
[3] = 1500 mg/kg, 72 h, dose level High, time 3 day
[4] = 1500 mg/kg, 120 h, dose level High, time 5 day

CC[C@H]1OC(=O)[C@H](C)[C@@H](O[C@H]2C[C@@](C)(OC)[C@@H](O)[C@H](C)O2)[C@H](C)[C@@H](O[C@@H]2O[C@H](C)C[C@H](N(C)C)[C@H]2O)[C@](C)(O)C[C@@H](C)C(=O)[C@H](C)[C@@H](O)[C@]1(C)O [ERYTHROMYCIN]
ABSOLUTE BASOPHIL [1]: 0 CELLS/uL | ABSOLUTE EOSINOPHIL [1]: 38.33 CELLS/uL | ABSOLUTE LYMPHOCYTE [1]: 15941.33 CELLS/uL | ABSOLUTE MONOCYTE [1]: 389.67 CELLS/uL | ABSOLUTE SEGMENTED NEUTROPHIL [1]: 1297.33 CELLS/uL | BASOPHIL [1]: 0% | EOSINOPHIL [1]: 0.33% | ERYTHROCYTE COUNT [1]: 5.45 x10E6/uL | HEMATOCRIT [1]: 34.13% | HEMOGLOBIN [1]: 13.53 G/DL | LEUKOCYTE COUNT [1]: 17.67 x10E3/uL | LYMPHOCYTE [1]: 89.67% | MEAN CORPUSCULAR HEMOGLOBIN [1]: 24.9 pg | MEAN CORPUSCULAR HEMOGLOBIN CONCENTRATION [1]: 39.67 G/DL | MEAN CORPUSCULAR VOLUME [1]: 62.7 fL | MONOCYTE [1]: 2% | NEUTROPHIL [1]: 8% | NUCLEATED RED BLOOD CELLS [1]: 0 /100WBC | PLATELET COUNT [1]: 1119.67 x10E3/uL | ALANINE AMINOTRANSFERASE [1]: 49.33 u/L | ALBUMIN [1]: 4.3 G/DL | ALKALINE PHOSPHATASE [1]: 366 u/L | ASPARTATE AMINOTRANSFERASE [1]: 81 u/L | BLOOD UREA NITROGEN [1]: 14.67 mg/dL | CARBON DIOXIDE [1]: 28.33 mmol/L | CHLORIDE [1]: 99.33 MEQ/L | CHOLESTEROL [1]: 80 mg/dL | CREATINE PHOSPHOKINASE [1]: 238.67 u/L | CREATININE [1]: 0.19 mg/dL | GLUCOSE [1]: 154 mg/dL | LACTATE DEHYDROGENASE [1]: 152.67 u/L | LIPASE [1]: 9 u/L | PHOSPHORUS [1]: 12 mg/dL | POTASSIUM [1]: 6.83 MEQ/L | SODIUM [1]: 143.9 MEQ/L | TOTAL BILIRUBIN [1]: 0.27 mg/dL | TOTAL PROTEIN [1]: 6 G/DL | URIC ACID [1]: 1.57 mg/dL | ABSOLUTE BASOPHIL [2]: 0 CELLS/uL | ABSOLUTE EOSINOPHIL [2]: 0 CELLS/uL | ABSOLUTE LYMPHOCYTE [2]: 13393.67 CELLS/uL | ABSOLUTE MONOCYTE [2]: 52.33 CELLS/uL | ABSOLUTE SEGMENTED NEUTROPHIL [2]: 520.67 CELLS/uL | BASOPHIL [2]: 0% | EOSINOPHIL [2]: 0% | ERYTHROCYTE COUNT [2]: 4.88 x10E6/uL | HEMATOCRIT [2]: 31.9% | HEMOGLOBIN [2]: 12.4 G/DL | LEUKOCYTE COUNT [2]: 13.97 x10E3/uL | LYMPHOCYTE [2]: 96% | MEAN CORPUSCULAR HEMOGLOBIN [2]: 25.47 pg | MEAN CORPUSCULAR HEMOGLOBIN CONCENTRATION [2]: 38.87 G/DL | MEAN CORPUSCULAR VOLUME [2]: 65.47 fL | MONOCYTE [2]: 0.33% | NEUTROPHIL [2]: 3.67% | NUCLEATED RED BLOOD CELLS [2]: 1 /100WBC | PLATELET COUNT [2]: 1227.33 x10E3/uL | ALANINE AMINOTRANSFERASE [2]: 45 u/L | ALBUMIN [2]: 4.23 G/DL | ALKALINE PHOSPHATASE [2]: 454.67 u/L | ASPARTATE AMINOTRANSFERASE [2]: 86.33 u/L | BLOOD UREA NITROGEN [2]: 15.33 mg/dL | CARBON DIOXIDE [2]: 25.67 mmol/L | CHLORIDE [2]: 104 MEQ/L | CHOLESTEROL [2]: 39 mg/dL | CREATINE PHOSPHOKINASE [2]: 315.67 u/L | CREATININE [2]: 0.19 mg/dL | GLUCOSE [2]: 170 mg/dL | LACTATE DEHYDROGENASE [2]: 199 u/L | LIPASE [2]: 7.67 u/L | PHOSPHORUS [2]: 10.83 mg/dL | POTASSIUM [2]: 6.66 MEQ/L | SODIUM [2]: 143.43 MEQ/L | TOTAL BILIRUBIN [2]: 0.27 mg/dL | TOTAL PROTEIN [2]: 6.13 G/DL | URIC ACID [2]: 1.5 mg/dL | ABSOLUTE BASOPHIL [3]: 0 CELLS/uL | ABSOLUTE EOSINOPHIL [3]: 0 CELLS/uL | ABSOLUTE LYMPHOCYTE [3]: 15179 CELLS/uL | ABSOLUTE MONOCYTE [3]: 91.33 CELLS/uL | ABSOLUTE SEGMENTED NEUTROPHIL [3]: 1229.67 CELLS/uL | BASOPHIL [3]: 0% | EOSINOPHIL [3]: 0% | ERYTHROCYTE COUNT [3]: 6.59 x10E6/uL | HEMATOCRIT [3]: 42.83% | HEMOGLOBIN [3]: 16.43 G/DL | LEUKOCYTE COUNT [3]: 16.5 x10E3/uL | LYMPHOCYTE [3]: 91% | MEAN CORPUSCULAR HEMOGLOBIN [3]: 24.97 pg | MEAN CORPUSCULAR HEMOGLOBIN CONCENTRATION [3]: 38.43 G/DL | MEAN CORPUSCULAR VOLUME [3]: 64.9 fL | MONOCYTE [3]: 0.67% | NEUTROPHIL [3]: 8.33% | NUCLEATED RED BLOOD CELLS [3]: 0 /100WBC | PLATELET COUNT [3]: 1070 x10E3/uL | ALANINE AMINOTRANSFERASE [3]: 65.33 u/L | ALBUMIN [3]: 4.03 G/DL | ALKALINE PHOSPHATASE [3]: 390 u/L | ASPARTATE AMINOTRANSFERASE [3]: 86.33 u/L | BLOOD UREA NITROGEN [3]: 9.33 mg/dL | CARBON DIOXIDE [3]: 34 mmol/L | CHLORIDE [3]: 100 MEQ/L | CHOLESTEROL [3]: 106.33 mg/dL | CREATINE PHOSPHOKINASE [3]: 328 u/L | CREATININE [3]: 0.16 mg/dL | GLUCOSE [3]: 137.67 mg/dL | LACTATE DEHYDROGENASE [3]: 131 u/L | LIPASE [3]: 9 u/L | PHOSPHORUS [3]: 12.3 mg/dL | POTASSIUM [3]: 6.72 MEQ/L | SODIUM [3]: 144.47 MEQ/L | TOTAL BILIRUBIN [3]: 0.1 mg/dL | TOTAL PROTEIN [3]: 6.17 G/DL | URIC ACID [3]: 2.13 mg/dL | ABSOLUTE BASOPHIL [4]: 0 CELLS/uL | ABSOLUTE EOSINOPHIL [4]: 0 CELLS/uL | ABSOLUTE LYMPHOCYTE [4]: 14587.33 CELLS/uL | ABSOLUTE MONOCYTE [4]: 796.67 CELLS/uL | ABSOLUTE SEGMENTED NEUTROPHIL [4]: 1949.33 CELLS/uL | BASOPHIL [4]: 0% | EOSINOPHIL [4]: 0% | ERYTHROCYTE COUNT [4]: 6.53 x10E6/uL | HEMATOCRIT [4]: 39.67% | HEMOGLOBIN [4]: 15.9 G/DL | LEUKOCYTE COUNT [4]: 17.33 x10E3/uL | LYMPHOCYTE [4]: 84.67% | MEAN CORPUSCULAR HEMOGLOBIN [4]: 24.4 pg | MEAN CORPUSCULAR HEMOGLOBIN CONCENTRATION [4]: 40.13 G/DL | MEAN CORPUSCULAR VOLUME [4]: 60.83 fL | MONOCYTE [4]: 4.33% | NEUTROPHIL [4]: 11% | NUCLEATED RED BLOOD CELLS [4]: 0 /100WBC | PLATELET COUNT [4]: 1382.33 x10E3/uL | ALANINE AMINOTRANSFERASE [4]: 67 u/L | ALBUMIN [4]: 3.7 G/DL | ALKALINE PHOSPHATASE [4]: 311.67 u/L | ASPARTATE AMINOTRANSFERASE [4]: 107.33 u/L | BLOOD UREA NITROGEN [4]: 13.67 mg/dL | CARBON DIOXIDE [4]: 29 mmol/L | CHLORIDE [4]: 100 MEQ/L | CHOLESTEROL [4]: 107.67 mg/dL | CREATINE PHOSPHOKINASE [4]: 532.67 u/L | CREATININE [4]: 0.21 mg/dL | GLUCOSE [4]: 130.33 mg/dL | LACTATE DEHYDROGENASE [4]: 259.67 u/L | LIPASE [4]: 9.33 u/L | PHOSPHORUS [4]: 9.97 mg/dL | POTASSIUM [4]: 9.14 MEQ/L | SODIUM [4]: 141.8 MEQ/L | TOTAL BILIRUBIN [4]: 0.1 mg/dL | TOTAL PROTEIN [4]: 6.13 G/DL | URIC ACID [4]: 1.27 mg/dL
